Measurements reported in patent US7790884B2, “Acylaminopiperidine compound” (Astellas Pharma Inc., priority 2006, dated 2010).
Counter-ions that a name gives are not always drawn.

target: T1, human CCR4 (Homo sapiens, UniProt P51679); test: [35S]GTPγS binding test via CCR4 (human MDC-stimulated, human CCR4 expressing cell line membrane fraction); type: biochemical; details: membrane fraction of human CCR4 expressing B300-16 cells, room temperature 1 hour 30 minutes, read-out: inhibitory activity value (IC50)
T1 construct: expressed in transfected cells; membrane fraction used
T1 sequence (P51679 1-360): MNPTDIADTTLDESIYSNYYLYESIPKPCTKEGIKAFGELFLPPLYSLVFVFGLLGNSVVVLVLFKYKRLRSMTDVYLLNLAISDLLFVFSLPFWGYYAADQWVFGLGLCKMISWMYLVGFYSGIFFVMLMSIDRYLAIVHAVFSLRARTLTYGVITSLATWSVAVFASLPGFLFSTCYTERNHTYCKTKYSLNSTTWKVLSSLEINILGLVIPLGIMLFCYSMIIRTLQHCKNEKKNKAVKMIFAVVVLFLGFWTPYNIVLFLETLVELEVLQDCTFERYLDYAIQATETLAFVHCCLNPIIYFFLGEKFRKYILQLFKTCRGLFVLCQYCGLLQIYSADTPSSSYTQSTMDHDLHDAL
Experimental: Action for [^35S]GTPγS Binding Test Via CCR4 (1) Preparation of Human CCR4 Expressing Cell Line A vector (contains a neomycin-resistance gene) in which human CCR4 gene was inserted into downstream of the EF-1α promoter was prepared and transfected into a mouse pre B cell line B300-16 cells by electroporation. These cells were cultured using a G-418-supplemented medium, and a single cell line capable of producing human CCR4 constantly and stably was obtained by the limiting dilution method. (2) Preparation of Human CCR4 Expressing Cell Line Membrane Fraction The human CCR4 expressing cells were recovered, washed with PBS and then suspended in a lysis buffer (10 mM HEPES pH 7.5, 2 mM EDTA, proteinase inhibitor). After allowing the suspension to stand on ice for 15 minutes, the cells were disintegrated using a homogenizer and centrifuged (2000 rpm, 10 min, 4° C.). The supernatant was further subjected to ultracentrifugation (22 K, 30 min, 4° C.), and then the pellet was suspended in PBS and used in the subsequent test. (3) GTPγS Binding Test In a reaction mixture liquid containing 20 mM of HEPES pH 7.05, 100 mM of NaCl, 5 mM of MgCl2, 2 μM of GDP, human MDC, […] of [^35S]GTPγS, 1 mg of wheat germ agglutinin SPA beads and 1 μg of the human CCR4 expressing cell line membrane fraction, respective concentration of the test compound was allowed to undergo the reaction at room temperature for 1 hour and 30 minutes, and the radioactivity was measured.

IC50, ≤ 0.1 µM:
CCN(C(=O)[C@H]1CCCN1C)C1CCN(c2nc(Nc3ccc(Cl)cc3)c3cc(Br)ccc3n2)CC1 [Example 60]
CN(C(=O)[C@H]1CCCN1C)C1CCN(c2nc(Nc3ccc(Cl)cc3F)c3ccc(C#N)cc3n2)CC1 [Example 70]
CCN(C(=O)[C@H]1CCCN1)C1CCN(c2nc(Nc3ccc(Cl)cc3F)c3cc(Br)ccc3n2)CC1 [Example 56]
CN(C(=O)[C@H]1CCCN1)C1CCN(c2nc(Nc3ccc(Cl)cc3)c3cc(Br)ccc3n2)CC1 [Example 44]
COc1cc2c(Nc3ccc(Cl)cc3F)nc(N3CCC(N(C)C(=O)[C@H]4CCCN4C)CC3)nc2cc1F [Example 37]
CCN(C(=O)[C@@H]1CCCN1C)C1CCN(c2nc(Nc3ccc(Cl)cc3F)c3cc(Br)ccc3n2)CC1 [Example 57]
CN(C(=O)[C@@H]1CCCN1C)C1CCN(c2nc(Nc3ccc(Cl)cc3F)c3ccc(C#N)cc3n2)CC1 [Example 15]
CCn1ncc2c(Nc3ccc(Cl)cc3F)nc(N3CCC(N(C)C(=O)[C@H]4CCCN4)CC3)nc21 [Example 99]
CN(C(=O)[C@H]1CCCN1C)C1CCN(c2nc(Nc3ccc(Cl)cc3F)c3cnn(CC(F)(F)F)c3n2)CC1 [Example 104]
COc1cc2nc(N3CCC(N(C)C(=O)[C@H]4CCCN4CC(O)CO)CC3)nc(Nc3ccc(Cl)cc3F)c2cc1F (stereo partly shown) [Example 80]
CCN(C(=O)[C@H]1CCCN1C)C1CCN(c2nc(Nc3ccc(Cl)cc3F)c3cc(OC)c(OC)cc3n2)CC1 [Example 26]
CN(C(=O)[C@H]1CCCN1C)C1CCN(c2nc(Nc3ccc(Cl)cc3)c3cc(Br)ccc3n2)CC1 [Example 47]
COc1cc2nc(N3CCC(N(C)C(=O)[C@H]4CCCN4)CC3)nc(Nc3ccc(Cl)cc3)c2cc1F [Example 73]
CN(C(=O)[C@H]1CCCN1C)C1CCN(c2nc(Nc3ccc(Cl)cc3F)c3cc(F)ccc3n2)CC1 [Example 32]
CCN(C(=O)[C@@H]1CCCN1)C1CCN(c2nc(Nc3ccc(Cl)cc3)c3cc(Br)ccc3n2)CC1 [Example 64]
COc1cc2nc(N3CCC(N(C(=O)[C@@H]4CCCN4)C4CC4)CC3)nc(Nc3ccc(Cl)cc3F)c2cc1OC [Example 13]
CN(C(=O)[C@@H]1CCCN1)C1CCN(c2nc(Nc3ccc(Cl)cc3F)c3cc(F)ccc3n2)CC1 [Example 29]
CCN(C(=O)[C@H]1CCCN1)C1CCN(c2nc(Nc3ccc(Cl)cc3F)c3cc(F)ccc3n2)CC1 [Example 33]
COc1cc2c(Nc3ccc(Cl)cc3F)nc(N3CCC(N(C)C(=O)[C@H]4CCCN4)CC3)nc2cc1F [Example 35]
CCN(C(=O)[C@@H]1CCCN1)C1CCN(c2nc(Nc3ccc(Cl)cc3F)c3cc(OC)c(OC)cc3n2)CC1 [Example 9]
COc1cc2nc(N3CCC(N(C(=O)[C@H]4CCCCN4)C4CC4)CC3)nc(Nc3ccc(Cl)cc3F)c2cc1OC [Example 90]
COc1cc2nc(N3CCC(N(C(=O)[C@@H]4CCCN4C)C4CC4)CC3)nc(Nc3ccc(Cl)cc3F)c2cc1OC [Example 20]
CCN(C(=O)[C@@H]1CCCN1C)C1CCN(c2nc(Nc3ccc(Cl)cc3)c3cc(Br)ccc3n2)CC1 [Example 59]
CN(C(=O)[C@@H]1CCCN1)C1CCN(c2nc(Nc3ccc(Cl)cc3F)c3cnn(CC(F)(F)F)c3n2)CC1 [Example 101]
COc1cc2nc(N3CCC(N(C)C(=O)[C@@H]4CCCN4C)CC3)nc(Nc3ccc(Cl)cc3F)c2cc1F [Example 6]
CN(C(=O)[C@@H]1CCCN1C)C1CCN(c2nc(Nc3ccc(Cl)cc3)c3cc(F)ccc3n2)CC1 [Example 41]
CCN(C(=O)[C@H]1CCCN1)C1CCN(c2nc(Nc3ccc(Cl)cc3F)c3ccc(C#N)cc3n2)CC1 [Example 28]
CCN(C(=O)[C@@H]1CCCN1C)C1CCN(c2nc(Nc3ccc(Cl)cc3F)c3cc(F)ccc3n2)CC1 [Example 49]
CN(C(=O)[C@H]1CCCN1)C1CCN(c2nc(Nc3ccc(Cl)cc3F)c3cnn(CC(F)(F)F)c3n2)CC1 [Example 102]
CCN(C(=O)[C@H]1CCCN1)C1CCN(c2nc(Nc3ccc(Cl)cc3)c3cc(Br)ccc3n2)CC1 [Example 45]
CN(C(=O)[C@@H]1CCCN1)C1CCN(c2nc(Nc3ccc(Cl)cc3)c3cc(F)ccc3n2)CC1 [Example 38]
CN(C(=O)[C@@H]1CCCN1C)C1CCN(c2nc(Nc3ccc(Cl)cc3F)c3cnn(CC(F)(F)F)c3n2)CC1 [Example 103]
CN(C(=O)[C@H]1CCCN1)C1CCN(c2nc(Nc3ccc(Cl)cc3)c3cc(F)ccc3n2)CC1 [Example 39]
CN(C(=O)[C@H]1CCCN1)C1CCN(c2nc(Nc3ccc(Cl)cc3F)c3cc(F)ccc3n2)CC1 [Example 30]
COc1cc2nc(N3CCC(N(C)C(=O)[C@H]4CCCCN4)CC3)nc(Nc3ccc(Cl)cc3F)c2cc1OC [Example 87]
CCN(C(=O)[C@@H]1CCCN1C)C1CCN(c2nc(Nc3ccc(Cl)cc3)c3cc(F)ccc3n2)CC1 [Example 51]
CN(C(=O)[C@@H]1CCCN1C)C1CCN(c2nc(Nc3ccc(Cl)cc3F)c3cc(F)ccc3n2)CC1 [Example 31]
COc1cc2nc(N3CCC(N(C(=O)[C@H]4CCCCN4)C4CCC4)CC3)nc(Nc3ccc(Cl)cc3F)c2cc1OC [Example 91]
CCN(C(=O)[C@H]1CCCN1C)C1CCN(c2nc(Nc3ccc(Cl)cc3F)c3ccc(C#N)cc3n2)CC1 [Example 24]
COc1cc2nc(N3CCC(N(C)C(=O)[C@H]4CCCN4)CC3)nc(Nc3ccc(Cl)cn3)c2cc1F [Example 74]
COc1cc2nc(N3CCC(N(C(=O)[C@@H]4CCCN4)C4CCC4)CC3)nc(Nc3ccc(Cl)cc3F)c2cc1OC [Example 16]
COc1cc2nc(N3CCC(N(C)C(=O)[C@H]4CCCN4CCO)CC3)nc(Nc3ccc(Cl)cc3F)c2cc1F [Example 77]
CCN(C(=O)[C@@H]1CCCN1)C1CCN(c2nc(Nc3ccc(Cl)cc3F)c3ccc(C#N)cc3n2)CC1 [Example 69]
COc1cc2nc(N3CCC(N(C)C(=O)[C@@H]4CCCCN4)CC3)nc(Nc3ccc(Cl)cc3F)c2cc1OC [Example 86]
COc1cc2nc(N3CCC(N(C)C(=O)[C@@H]4CCCN4)CC3)nc(Nc3ccc(Cl)cc3F)c2cc1OC [Example 2, N-(1-{4-[(4-chloro-2-fluorophenyl)amino]-6,7-dimethoxyquinazolin-2-yl}piperidin-4-yl)-N-methyl-L-prolinamide dihydrochloride]
CN(C(=O)[C@H]1CCCN1)C1CCN(c2nc(Nc3ccc(Cl)cc3F)c3cnn(C)c3n2)CC1 [Example 95]
CN(C(=O)[C@H]1CCCN1)C1CCN(c2nc(Nc3ccc(Cl)cc3F)c3ccc(C#N)cc3n2)CC1 [Example 68]
COc1cc2nc(N3CCC(N(C)C(=O)[C@H]4CCCN4)CC3)nc(Nc3ccc(F)cn3)c2cc1F [Example 76]
CCN(C(=O)[C@@H]1CCCN1)C1CCN(c2nc(Nc3ccc(Cl)cc3)c3cc(F)ccc3n2)CC1 [Example 53]
CCN(C(=O)[C@H]1CCCN1)C1CCN(c2nc(Nc3ccc(Cl)cc3F)c3cc(F)c(OC)cc3n2)CC1 [Example 65]
COc1cc2nc(N3CCC(N(C)C(=O)[C@H]4CCCN4C)CC3)nc(Nc3ccc(Cl)cc3F)c2cc1F [Example 66]
COc1cc2nc(N3CCC(N(C)C(=O)[C@H]4CCCN4)CC3)nc(Nc3c(F)cc(Cl)cc3F)c2cc1F [Example 78]
COc1cc2nc(N3CCC(N(C)C(=O)[C@H]4CCCN4)CC3)nc(Nc3ccc(Cl)cc3F)c2cc1F [Example 62]
COc1cc2nc(N3CCC(N(C)C(=O)[C@@H]4CCCN4)CC3)nc(Nc3ccc(Cl)cc3F)c2cc1F [Example 61]
CN(C(=O)[C@@H]1CCCN1)C1CCN(c2nc(Nc3ccc(Cl)cc3F)c3ccc(C#N)cc3n2)CC1 [Example 5]
COc1cc2nc(N3CCC(N(C)C(=O)[C@H]4CCCN4)CC3)nc(Nc3cc(F)c(F)cc3F)c2cc1F [Example 72]
COc1cc2nc(N3CCC(N(C(=O)[C@H]4CCCN4)C4CCC4)CC3)nc(Nc3ccc(Cl)cc3F)c2cc1OC [Example 17]
CCN(C(=O)[C@@H]1CCCN1)C1CCN(c2nc(Nc3ccc(Cl)cc3F)c3cc(Br)ccc3n2)CC1 [Example 55]
